The nature of series [1]: in vitro. Conditions: CD-1, mouse, liver microsomes, pH 7.4. (In general: Liver microsomes are vesicles of endoplasmic reticulum, rich in cytochrome P450 enzymes.)
Protocol: To test the metabolic stability of the analogs, an in vitro microsomal stability assay was carried out.
The microsomal stability assay was performed in 96-well format (Perkin-Elmer, StorPlate-96U, PP, 96 well, round bottom). […] A stock solution of the compound to be analyzed (0.8 μL. 5 mM) or ethoxycoumarin (positive control, 0.8 μL, 5 mM) was added and the mixture was warmed to 37° C. for 5 minutes. The mouse microsomes (CD-1, 5 μL, thawed in a 37° C. water bath before use, 20 mg/mL, Life Technologies) were added. At selected time points (0, 15, 30, 45, 60 and 120 minutes) aliquots (15 μL) were withdrawn from the plate and quenched upon addition to cold acetonitrile (60 μL), containing an internal standard (5 μM) in a 96-well plate. The samples were centrifuged at 13,000 rpm for 10 minutes at 4° C. The supernatant (40 μL) was withdrawn and transferred to a sample vial with insert. The samples were analyzed by LC-MS.
LC-MS analysis was performed on a platform comprising a Thermo Scientific Dionex Ultimate 3000 and a Bruker amaZon SL equipped with an electrospray ionization source controlled by Bruker Hystar 3.2. […] The flow rate was maintained at 400 μL/min. The initial flow conditions were 60% solvent A (water containing 0.1% acetic acid) and 40% solvent B (methanol containing 0.1% acetic acid).
Aliquots were taken over the course of two hours and analyzed by HPLG-MS using an internal standard to assess compound stability over time.
The target of series [2] is T1, MLK1/MAP3K9 (Homo sapiens, UniProt P80192).
T1 construct: purchased Reaction Biology Corp
Nature of the series: Radiolabeled ATP kinase assay (Reaction Biology Corp.), MLK1. The series is classed as biochemical. The conditions noted are these: [Cmpd] 0.1 μM, 10 μM ATP. As to the method: Meanwhile, the same analogs were analyzed in a radiolabeled ATP assay (10 μM ATP; Reaction Biology Corp.) to compare the extent to which they could inhibit the activity of HGK, MLK1, or MLK3 in a cell-free environment (Table S3 and S4).

In series [3] the target is T2, panel of 60 human kinases (Homo sapiens, UniProt P42684).
T2 construct: purchased Reaction Biology Corp
T2 sequence (P42684 whole entry): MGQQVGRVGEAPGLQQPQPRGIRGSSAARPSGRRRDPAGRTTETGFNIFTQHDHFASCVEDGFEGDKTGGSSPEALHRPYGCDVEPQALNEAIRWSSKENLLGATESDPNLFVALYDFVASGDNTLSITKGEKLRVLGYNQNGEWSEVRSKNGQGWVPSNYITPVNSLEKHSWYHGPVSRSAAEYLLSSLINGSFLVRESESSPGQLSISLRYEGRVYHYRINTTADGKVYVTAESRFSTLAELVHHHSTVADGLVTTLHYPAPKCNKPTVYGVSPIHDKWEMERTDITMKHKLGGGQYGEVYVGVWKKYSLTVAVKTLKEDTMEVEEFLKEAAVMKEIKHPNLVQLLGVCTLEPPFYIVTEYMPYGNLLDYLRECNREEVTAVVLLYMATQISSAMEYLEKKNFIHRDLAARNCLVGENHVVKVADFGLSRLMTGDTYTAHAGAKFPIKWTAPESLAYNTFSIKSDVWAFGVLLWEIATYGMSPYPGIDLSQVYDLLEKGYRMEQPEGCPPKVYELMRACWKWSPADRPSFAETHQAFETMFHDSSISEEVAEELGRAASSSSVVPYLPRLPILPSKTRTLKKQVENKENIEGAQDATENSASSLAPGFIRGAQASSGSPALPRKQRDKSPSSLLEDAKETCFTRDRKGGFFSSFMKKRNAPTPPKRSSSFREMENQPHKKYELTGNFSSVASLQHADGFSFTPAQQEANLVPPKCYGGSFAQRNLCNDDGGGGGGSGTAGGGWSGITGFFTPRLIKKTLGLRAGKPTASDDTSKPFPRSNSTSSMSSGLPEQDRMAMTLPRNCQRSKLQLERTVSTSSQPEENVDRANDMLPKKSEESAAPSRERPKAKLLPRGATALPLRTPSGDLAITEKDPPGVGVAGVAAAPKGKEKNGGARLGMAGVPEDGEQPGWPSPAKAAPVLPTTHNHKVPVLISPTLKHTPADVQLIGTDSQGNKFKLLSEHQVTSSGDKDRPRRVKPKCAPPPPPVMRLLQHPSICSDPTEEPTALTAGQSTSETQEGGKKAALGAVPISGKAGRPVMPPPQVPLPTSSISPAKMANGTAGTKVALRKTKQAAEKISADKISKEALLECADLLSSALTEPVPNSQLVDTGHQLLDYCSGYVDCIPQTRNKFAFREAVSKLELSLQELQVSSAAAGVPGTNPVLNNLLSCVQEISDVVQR
Briefly: Radiolabeled ATP kinase assay, panel of 60 kinases (Table S5). The series is classed as biochemical. Conditions: ABL2/ARG; 0.1 μM; 10 μM ATP; read-out: % Enzyme Activity (relative to DSMO controls). The essentials:
(§1)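 Compounds at two concentrations, 0.1 μM and 0.5 μM, were screened for inhibition of 60 kinases in cell-free assays read out by radiolabeled ATP.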

The target of series [4] is T3, panel of 60 human kinases (Homo sapiens, UniProt P50750).
T3 construct: purchased Reaction Biology Corp
T3 sequence (P50750 whole entry): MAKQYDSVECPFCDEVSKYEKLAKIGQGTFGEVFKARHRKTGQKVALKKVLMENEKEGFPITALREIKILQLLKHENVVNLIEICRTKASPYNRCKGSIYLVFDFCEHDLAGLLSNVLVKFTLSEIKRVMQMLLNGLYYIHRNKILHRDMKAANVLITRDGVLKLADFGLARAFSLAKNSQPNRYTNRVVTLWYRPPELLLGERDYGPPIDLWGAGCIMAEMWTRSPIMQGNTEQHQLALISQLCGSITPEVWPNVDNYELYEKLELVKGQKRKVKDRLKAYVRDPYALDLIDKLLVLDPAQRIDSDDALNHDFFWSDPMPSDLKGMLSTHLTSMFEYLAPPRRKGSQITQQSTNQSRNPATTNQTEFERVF
The series is described as above. In kind it is biochemical. The conditions noted are these: 0.1 μM, 10 μM ATP, read-out: % Enzyme Activity (relative to DSMO controls). The gist of the method:
as §1

For series [5], the target named is T4, panel of 60 human kinases (Homo sapiens, UniProt Q8N4C8).
T4 construct: purchased Reaction Biology Corp
T4 sequence (Q8N4C8 whole entry): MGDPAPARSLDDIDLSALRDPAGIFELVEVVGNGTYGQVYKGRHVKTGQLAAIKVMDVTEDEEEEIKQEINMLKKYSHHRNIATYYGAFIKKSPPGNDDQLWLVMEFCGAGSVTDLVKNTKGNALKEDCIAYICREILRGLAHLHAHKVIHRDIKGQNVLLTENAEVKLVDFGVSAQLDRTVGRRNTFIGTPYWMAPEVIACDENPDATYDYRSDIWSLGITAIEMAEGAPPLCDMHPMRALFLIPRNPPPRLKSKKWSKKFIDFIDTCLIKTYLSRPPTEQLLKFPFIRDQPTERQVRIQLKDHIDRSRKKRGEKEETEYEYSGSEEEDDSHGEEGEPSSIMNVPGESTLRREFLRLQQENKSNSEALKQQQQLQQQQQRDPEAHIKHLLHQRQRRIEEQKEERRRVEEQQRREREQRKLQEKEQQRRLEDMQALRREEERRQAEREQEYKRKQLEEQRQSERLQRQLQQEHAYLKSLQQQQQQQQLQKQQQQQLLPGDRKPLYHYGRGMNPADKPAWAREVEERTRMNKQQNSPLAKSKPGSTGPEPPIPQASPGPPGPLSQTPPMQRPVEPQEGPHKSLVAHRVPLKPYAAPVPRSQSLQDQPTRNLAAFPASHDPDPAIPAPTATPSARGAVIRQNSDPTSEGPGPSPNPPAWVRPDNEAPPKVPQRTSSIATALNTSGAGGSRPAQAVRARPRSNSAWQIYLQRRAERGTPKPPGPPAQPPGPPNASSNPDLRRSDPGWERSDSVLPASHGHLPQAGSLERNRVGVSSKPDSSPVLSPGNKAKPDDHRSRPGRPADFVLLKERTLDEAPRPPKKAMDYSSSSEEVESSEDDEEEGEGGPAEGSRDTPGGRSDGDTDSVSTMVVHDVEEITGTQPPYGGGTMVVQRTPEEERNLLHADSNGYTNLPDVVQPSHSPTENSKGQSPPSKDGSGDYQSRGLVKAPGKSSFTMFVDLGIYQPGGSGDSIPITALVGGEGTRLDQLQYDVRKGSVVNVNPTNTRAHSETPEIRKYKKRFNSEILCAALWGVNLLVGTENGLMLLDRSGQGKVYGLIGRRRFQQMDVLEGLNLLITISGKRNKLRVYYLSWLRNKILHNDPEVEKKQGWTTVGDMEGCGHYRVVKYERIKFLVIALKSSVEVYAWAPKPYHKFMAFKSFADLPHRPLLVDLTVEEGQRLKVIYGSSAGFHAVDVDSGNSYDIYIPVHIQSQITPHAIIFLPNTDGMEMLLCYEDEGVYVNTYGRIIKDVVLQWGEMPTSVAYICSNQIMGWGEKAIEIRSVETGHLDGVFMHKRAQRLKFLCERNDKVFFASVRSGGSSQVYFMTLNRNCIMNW
The series is described as above. The series is classed as biochemical. Conditions: MINK/MINK1; 0.1 μM; 10 μM ATP; read-out: % Enzyme Activity (relative to DSMO controls). The essentials:
as §1

Series [6] concerns the target T5, panel of 60 human kinases (Homo sapiens, UniProt Q00534).
T5 construct: purchased Reaction Biology Corp
The series is described as above. The series is classed as biochemical. The conditions noted are these: 0.1 μM, 10 μM ATP, read-out: % Enzyme Activity (relative to DSMO controls). The gist of the method: as §1

Series [7] has as its target T6, panel of 60 human kinases (Homo sapiens, UniProt P11802).
T6 construct: purchased Reaction Biology Corp
The series is described as above. In kind it is biochemical. The conditions noted are these: 0.1 μM, 10 μM ATP, read-out: % Enzyme Activity (relative to DSMO controls). The essentials:
as §1

The target in series [8] is T7, panel of 60 human kinases (Homo sapiens, UniProt Q15139).
T7 construct: purchased Reaction Biology Corp
T7 sequence (Q15139 1-912): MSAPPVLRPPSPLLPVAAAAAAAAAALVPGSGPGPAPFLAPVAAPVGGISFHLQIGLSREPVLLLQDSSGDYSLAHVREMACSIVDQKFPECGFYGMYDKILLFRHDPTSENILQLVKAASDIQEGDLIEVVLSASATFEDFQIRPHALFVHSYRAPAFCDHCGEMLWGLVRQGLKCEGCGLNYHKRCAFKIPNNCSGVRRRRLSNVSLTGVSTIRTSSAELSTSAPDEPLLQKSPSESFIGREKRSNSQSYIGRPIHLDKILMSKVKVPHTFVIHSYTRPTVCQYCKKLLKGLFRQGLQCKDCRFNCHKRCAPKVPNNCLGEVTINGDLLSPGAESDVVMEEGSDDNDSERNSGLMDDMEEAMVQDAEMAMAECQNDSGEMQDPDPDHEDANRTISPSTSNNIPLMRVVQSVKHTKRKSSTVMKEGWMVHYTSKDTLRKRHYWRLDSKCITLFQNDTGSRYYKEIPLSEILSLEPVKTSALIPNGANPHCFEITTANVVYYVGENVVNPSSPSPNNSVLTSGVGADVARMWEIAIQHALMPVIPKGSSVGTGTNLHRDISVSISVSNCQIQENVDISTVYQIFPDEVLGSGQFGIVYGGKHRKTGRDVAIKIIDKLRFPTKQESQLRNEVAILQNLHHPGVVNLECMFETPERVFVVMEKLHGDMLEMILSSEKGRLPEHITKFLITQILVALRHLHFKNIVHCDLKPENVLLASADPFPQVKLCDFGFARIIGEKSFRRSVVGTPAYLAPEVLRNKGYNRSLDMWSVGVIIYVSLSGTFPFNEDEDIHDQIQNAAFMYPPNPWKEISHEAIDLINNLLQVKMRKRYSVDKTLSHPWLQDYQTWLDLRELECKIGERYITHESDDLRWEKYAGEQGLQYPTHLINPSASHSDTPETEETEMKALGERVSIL
Described as above. The series is classed as biochemical. The conditions noted are these: PKCmu/PRKD1; 0.1 μM; 10 μM ATP; read-out: % Enzyme Activity (relative to DSMO controls). The gist of the method: as §1

Where [9] appears, read: read-out: % Enzyme Activity Remaining (relative to DMSO controls), MLK1/MAP3K9, Data 1.
Where [10] appears, read: read-out: % Enzyme Activity Remaining (relative to DMSO controls), MLK1/MAP3K9, Data 2.

Read-outs that look alike come from different tables or passages of the source.

T1 sequence (P80192 whole entry): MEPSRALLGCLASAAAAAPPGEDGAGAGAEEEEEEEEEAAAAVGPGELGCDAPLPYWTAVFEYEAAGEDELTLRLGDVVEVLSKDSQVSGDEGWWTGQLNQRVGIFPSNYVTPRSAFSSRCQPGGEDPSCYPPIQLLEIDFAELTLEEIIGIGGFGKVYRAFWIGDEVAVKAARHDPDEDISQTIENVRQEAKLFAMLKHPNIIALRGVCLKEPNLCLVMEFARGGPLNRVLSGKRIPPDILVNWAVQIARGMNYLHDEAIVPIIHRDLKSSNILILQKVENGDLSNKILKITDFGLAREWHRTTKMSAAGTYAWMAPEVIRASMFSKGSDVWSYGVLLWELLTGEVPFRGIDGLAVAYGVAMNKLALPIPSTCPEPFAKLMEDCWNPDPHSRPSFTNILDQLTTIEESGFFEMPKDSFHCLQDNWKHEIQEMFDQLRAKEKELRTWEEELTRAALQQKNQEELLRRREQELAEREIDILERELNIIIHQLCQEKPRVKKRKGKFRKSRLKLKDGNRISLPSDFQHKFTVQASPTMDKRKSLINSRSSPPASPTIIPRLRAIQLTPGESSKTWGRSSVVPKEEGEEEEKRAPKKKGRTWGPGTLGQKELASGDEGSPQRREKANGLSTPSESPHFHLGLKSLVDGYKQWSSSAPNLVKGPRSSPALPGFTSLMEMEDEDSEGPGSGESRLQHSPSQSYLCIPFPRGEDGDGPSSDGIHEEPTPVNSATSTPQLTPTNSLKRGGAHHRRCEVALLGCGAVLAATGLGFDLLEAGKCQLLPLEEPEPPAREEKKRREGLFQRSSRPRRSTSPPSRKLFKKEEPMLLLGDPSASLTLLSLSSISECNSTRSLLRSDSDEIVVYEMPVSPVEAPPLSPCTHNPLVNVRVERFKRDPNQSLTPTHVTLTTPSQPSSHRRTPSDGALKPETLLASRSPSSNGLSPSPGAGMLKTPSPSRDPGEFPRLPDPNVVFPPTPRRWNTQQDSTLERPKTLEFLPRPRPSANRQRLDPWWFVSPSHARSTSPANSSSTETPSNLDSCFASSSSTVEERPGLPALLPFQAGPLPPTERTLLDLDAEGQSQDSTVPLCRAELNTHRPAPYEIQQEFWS
T5 sequence (Q00534 whole entry): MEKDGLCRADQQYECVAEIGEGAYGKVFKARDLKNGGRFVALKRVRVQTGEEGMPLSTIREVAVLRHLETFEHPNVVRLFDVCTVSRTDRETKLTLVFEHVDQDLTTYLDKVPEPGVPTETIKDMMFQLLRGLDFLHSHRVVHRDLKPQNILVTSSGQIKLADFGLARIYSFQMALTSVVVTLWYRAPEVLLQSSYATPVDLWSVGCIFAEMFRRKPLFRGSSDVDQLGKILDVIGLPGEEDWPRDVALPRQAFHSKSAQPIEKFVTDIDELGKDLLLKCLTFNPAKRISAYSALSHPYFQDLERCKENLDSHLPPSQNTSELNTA
T6 sequence (P11802 whole entry): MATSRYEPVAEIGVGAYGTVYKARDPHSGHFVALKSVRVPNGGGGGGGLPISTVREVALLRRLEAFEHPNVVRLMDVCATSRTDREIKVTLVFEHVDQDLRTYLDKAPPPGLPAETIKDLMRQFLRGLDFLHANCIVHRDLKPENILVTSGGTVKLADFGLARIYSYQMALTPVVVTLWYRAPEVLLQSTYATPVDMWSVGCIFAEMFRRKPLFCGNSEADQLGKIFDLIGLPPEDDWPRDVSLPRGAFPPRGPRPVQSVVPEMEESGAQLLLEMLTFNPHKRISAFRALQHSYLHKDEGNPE

The half-life is the time in which the quantity being followed falls by half. In series [1], `CN1CCN(Cc2ccc(-c3cnc4[nH]cc(-c5cccc(Cl)c5)c4c3)cc2)CC1` [Compound 7ad, 3-(3-Chlorophenyl)-5-(4-((4-methylpiperazin-1-yl)methyl)phenyl)-1H-pyrrolo[2,3-b]pyridine] came in with a half-life at 20 μM greater than 30 min. Besides, the remaining activity at 0.1 µM in series [2] (setting [9]) was found to be 61.9%; in series [2] (setting [10]), 63.6%; in series [3], 83.7%; in series [4] (CDK9/cyclin K), 99.7%; in series [4] (CDK9/cyclin T1) it was 78%; in series [4] (CDK9/cyclin T2) it was 95.2%. The remaining activity at 0.1 µM turned out to be 3.06% in series [5]; 45.8% in series [6] (CDK6/cyclin D1); 58.8% in series [6] (CDK6/cyclin D3); 70.9% in series [7] (CDK4/cyclin D1); 58.1% in series [7] (CDK4/cyclin D3); 9.7% in series [8].
As for `COc1ccccc1-c1c[nH]c2ncc(-c3ccc(CN4CCN(C)CC4)cc3)cc12` [Compound 7at, 3-(2-Methoxyphenyl)-5-(4-((4-methylpiperazin-1-yl)methyl)phenyl)-1H-pyrrolo[2,3-b]pyridine], in series [1], the half-life at 20 μM is greater than 30 min. Further, the remaining activity at 0.1 µM in series [2] (setting [9]) is 31.3%; in series [2] (setting [10]), 30.6%; in series [3], 21.8%; in series [4] (CDK9/cyclin K), 79.5%; in series [4] (CDK9/cyclin T1), 46.3%; in series [4] (CDK9/cyclin T2) it was 37.4%. Also, the remaining activity at 0.1 µM in series [5] was found to be 9.84%; in series [6] (CDK6/cyclin D1), 7.23%; in series [6] (CDK6/cyclin D3) it was 46%; in series [7] (CDK4/cyclin D1), 14.1%; in series [7] (CDK4/cyclin D3), 24.4%; in series [8] it was 38.7%.

For the origin of these results see US12227500B2, “Substituted pyrrolo[2,3-b]pyridines for suppressing toxic endoplasmic reticulum stress” (THE TRUSTEES OF COLUMBIA UNIVERSITY IN THE CITY OF NEW YORK, priority 2018, dated 2025).
